A short description of the data set: critical micelle concentration of the surfactant in water. Type of data set: physicochemical. An excerpt:
The ability of anionic surfactants to solubilize cyclosporins in water substantially increases when the concentration of the surfactant in water substantially exceeds the critical micelle concentration. Using sodium lauryl sulfate, for example, the critical micelle concentration is about 0.1% by weight.

Regarding `CCCCCCCCCCCCOS(=O)(=O)[O-].[Na+]` [sodium lauryl sulfate], the critical micelle concentration entry was “about 0.1 % by weight”.

Values taken from US6197335A, “Solid pharmaceutical compositions comprising a cyclosporin and an anionic surfactant” (Sherman; Bernard Charles, priority 1997, dated 2001).
